In PubChem BioAssay AID2060510 (Molecular Pharmacology Branch, DTP, NCI, 2025):
pIC50: −log10 of the molar value.

Test system: 439559-082-T-J2-PDC spheroids viability
Assay: Anticancer human tumor 439559-082-T-J2-PDC patient-derived colon adenocarcinoma cell line growth inhibition [GQUAD]
Settings: for pIC50: curve of first compound; for viability, T/C: stronger effect = lower value
How it was run: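 Tumor cells were grown as complex spheroids with HUVEC endothelial cells and mesenchymal stem cells as stroma. G-quadruplex stabilizers were combined with targeted agents over half-log dilutions from near the clinical Cmax, or from 10 microM.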

[1] = second compound 0.0316 µM, first compound 0.0316 µM
[2] = second compound 0.0316 µM, first compound 0.1 µM
[3] = second compound 0.0316 µM, first compound 0.316 µM
[4] = second compound 0.0316 µM, first compound 1 µM
[5] = second compound 0.0316 µM, first compound 3.16 µM
[6] = second compound 0.0316 µM, first compound 10 µM
[7] = second compound 0.1 µM, first compound 0.0316 µM
[8] = second compound 0.1 µM, first compound 0.1 µM
[9] = second compound 0.1 µM, first compound 0.316 µM
[10] = second compound 0.1 µM, first compound 1 µM
[11] = second compound 0.1 µM, first compound 3.16 µM
[12] = second compound 0.1 µM, first compound 10 µM
[13] = second compound 0.316 µM, first compound 0.0316 µM
[14] = second compound 0.316 µM, first compound 0.1 µM
[15] = second compound 0.316 µM, first compound 0.316 µM
[16] = second compound 0.316 µM, first compound 1 µM
[17] = second compound 0.316 µM, first compound 3.16 µM
[18] = second compound 0.316 µM, first compound 10 µM
[19] = second compound 1 µM, first compound 0.0316 µM
[20] = second compound 1 µM, first compound 0.1 µM
[21] = second compound 1 µM, first compound 0.316 µM
[22] = second compound 1 µM, first compound 1 µM
[23] = second compound 1 µM, first compound 3.16 µM
[24] = second compound 1 µM, first compound 10 µM
[25] = second compound 3.16 µM, first compound 0.0316 µM
[26] = second compound 3.16 µM, first compound 0.1 µM
[27] = second compound 3.16 µM, first compound 0.316 µM
[28] = second compound 3.16 µM, first compound 1 µM
[29] = second compound 3.16 µM, first compound 3.16 µM
[30] = second compound 3.16 µM, first compound 10 µM
[31] = second compound 10 µM, first compound 0.0316 µM
[32] = second compound 10 µM, first compound 0.1 µM
[33] = second compound 10 µM, first compound 0.316 µM
[34] = second compound 10 µM, first compound 1 µM
[35] = second compound 10 µM, first compound 3.16 µM
[36] = second compound 10 µM, first compound 10 µM
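Further: spheroids exposed to the agents for 7 days before readout.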
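Wherever viability, T/C is given: percent of luminescence signal in DMSO vehicle wells taken as 100% viability.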

## C=CCn1c(=O)c2cnc(Nc3ccc(N4CCN(C)CC4)cc3)nc2n1-c1cccc(C(C)(C)O)n1 + Cc1[nH]c2ccc(F)cc2c1-c1nc2c3cccnc3c3ncccc3c2[nH]1
Second compound 0.0316 µM
  pIC50: 5.10
Second compound 0.1 µM
  pIC50: < 5.00
Second compound 0.316 µM
  pIC50: 5.09
Second compound 1 µM
  pIC50: 5.08
Second compound 3.16 µM
  pIC50: 5.24
Second compound 10 µM
  pIC50: 5.25
[1]
  viability, T/C: 94.2%
[2]
  viability, T/C: 92.7%
[3]
  viability, T/C: 97.6%
[4]
  viability, T/C: 101%
[5]
  viability, T/C: 115%
[6]
  viability, T/C: 37%
[7]
  viability, T/C: 96.6%
[8]
  viability, T/C: 88.4%
[9]
  viability, T/C: 103%
[10]
  viability, T/C: 92.9%
[11]
  viability, T/C: 98.5%
[12]
  viability, T/C: 57.4%
[13]
  viability, T/C: 97.7%
[14]
  viability, T/C: 102%
[15]
  viability, T/C: 89%
[16]
  viability, T/C: 104%
[17]
  viability, T/C: 106%
[18]
  viability, T/C: 38.6%
[19]
  viability, T/C: 107%
[20]
  viability, T/C: 99%
[21]
  viability, T/C: 100%
[22]
  viability, T/C: 95.7%
[23]
  viability, T/C: 96.9%
[24]
  viability, T/C: 41.2%
[25]
  viability, T/C: 80.5%
[26]
  viability, T/C: 80.2%
[27]
  viability, T/C: 78.7%
[28]
  viability, T/C: 75.5%
[29]
  viability, T/C: 76.1%
[30]
  viability, T/C: 25.9%
[31]
  viability, T/C: 97.4%
[32]
  viability, T/C: 71.8%
[33]
  viability, T/C: 72.6%
[34]
  viability, T/C: 71.3%
[35]
  viability, T/C: 80.4%
[36]
  viability, T/C: 20.3%

## CC(C)(O)C1CCC(Nc2ccc3ncc(-c4cccc(C(F)(F)F)c4)n3n2)CC1 (stereo unspecified) + Cc1[nH]c2ccc(F)cc2c1-c1nc2c3cccnc3c3ncccc3c2[nH]1
Second compound 0.0316 µM
  pIC50: < 5.00
Second compound 0.1 µM
  pIC50: 5.10
Second compound 0.316 µM
  pIC50: < 5.00
Second compound 1 µM
  pIC50: 5.20
Second compound 3.16 µM
  pIC50: 5.49
Second compound 10 µM
  pIC50: 5.91
[1]
  viability, T/C: 99.4%
[2]
  viability, T/C: 85.6%
[3]
  viability, T/C: 70.6%
[4]
  viability, T/C: 66%
[5]
  viability, T/C: 58.8%
[6]
  viability, T/C: 48.6%
[7]
  viability, T/C: 102%
[8]
  viability, T/C: 78%
[9]
  viability, T/C: 77.9%
[10]
  viability, T/C: 58.8%
[11]
  viability, T/C: 66.2%
[12]
  viability, T/C: 42.9%
[13]
  viability, T/C: 86.3%
[14]
  viability, T/C: 76.6%
[15]
  viability, T/C: 62.4%
[16]
  viability, T/C: 61.9%
[17]
  viability, T/C: 53.6%
[18]
  viability, T/C: 50.1%
[19]
  viability, T/C: 87.1%
[20]
  viability, T/C: 69.1%
[21]
  viability, T/C: 76.4%
[22]
  viability, T/C: 66.3%
[23]
  viability, T/C: 61.4%
[24]
  viability, T/C: 42.5%
[25]
  viability, T/C: 77.8%
[26]
  viability, T/C: 73%
[27]
  viability, T/C: 62.3%
[28]
  viability, T/C: 51.3%
[29]
  viability, T/C: 57.7%
[30]
  viability, T/C: 41.1%
[31]
  viability, T/C: 75.8%
[32]
  viability, T/C: 73%
[33]
  viability, T/C: 63.4%
[34]
  viability, T/C: 50.6%
[35]
  viability, T/C: 44.5%
[36]
  viability, T/C: 38.2%

## COc1ncnc(C2CC2)c1-c1ncc2cnn(Cc3ccc(-c4nc(C(F)(F)F)cn4C(C)C)cc3)c2n1 + Cc1[nH]c2ccc(F)cc2c1-c1nc2c3cccnc3c3ncccc3c2[nH]1
Second compound 0.0316 µM
  pIC50: < 5.00
Second compound 0.1 µM
  pIC50: < 5.00
Second compound 0.316 µM
  pIC50: < 5.00
Second compound 1 µM
  pIC50: < 5.00
Second compound 3.16 µM
  pIC50: < 5.00
Second compound 10 µM
  pIC50: < 5.00
[1]
  viability, T/C: 102%
[2]
  viability, T/C: 86.8%
[3]
  viability, T/C: 97.2%
[4]
  viability, T/C: 90.3%
[5]
  viability, T/C: 81.5%
[6]
  viability, T/C: 58%
[7]
  viability, T/C: 112%
[8]
  viability, T/C: 94.8%
[9]
  viability, T/C: 97.6%
[10]
  viability, T/C: 93.8%
[11]
  viability, T/C: 84.6%
[12]
  viability, T/C: 63.6%
[13]
  viability, T/C: 103%
[14]
  viability, T/C: 104%
[15]
  viability, T/C: 103%
[16]
  viability, T/C: 90.6%
[17]
  viability, T/C: 83.7%
[18]
  viability, T/C: 72.5%
[19]
  viability, T/C: 99.8%
[20]
  viability, T/C: 92%
[21]
  viability, T/C: 91.9%
[22]
  viability, T/C: 92.5%
[23]
  viability, T/C: 77.8%
[24]
  viability, T/C: 60.4%
[25]
  viability, T/C: 97.3%
[26]
  viability, T/C: 95.3%
[27]
  viability, T/C: 93.2%
[28]
  viability, T/C: 78.2%
[29]
  viability, T/C: 82.5%
[30]
  viability, T/C: 50.6%
[31]
  viability, T/C: 80.8%
[32]
  viability, T/C: 62.9%
[33]
  viability, T/C: 92.6%
[34]
  viability, T/C: 81.7%
[35]
  viability, T/C: 84.8%
[36]
  viability, T/C: 60.7%
